From patent US7741520B2, “Sulfonanilide analogs as selective aromatase modulators (SAMs)” (The Ohio State University Research Foundation, priority 2006, dated 2010)

What was measured:
[1] = test system: aromatase activity in SK-BR-3 breast cancer cells; assay: Aromatase tritiated water-release assay in SK-BR-3 cell lines (first compound set); format: cell-based, human; conditions: SK-BR-3 cells; for IC50: 24 h treatment, five concentrations, each in triplicate, read-out: IC50 (μM), suppression of aromatase activity in SK-BR-3 breast cancer cells
Experimental: Aromatase Tritiated Water-Release Assay in SK-BR-3 Cell Lines. SK-BR-3 cells were obtained from ATCC (Rockville, Md.). Cell cultures were maintained in phenol red-free custom media (MEM, Earle's salts, 1.5× amino acids, 2× nonessential amino acids, L-glutamine, 1.5× vitamins, Gibco BRL) supplemented with 10% fetal bovine serum (FBS), 2 mM L-glutamine, and 20 mg/L gentamycin. Measurement of aromatase enzyme activity was based on the tritium water release assay. 24 Cells in 100 mm Petri dish were treated with 0.1% DMSO (control), and inhibitors at the indicated concentrations. After 24 h, the media was changed and the cells were incubated with 100 nM [1â-3H]-androst-4-ene-3,17-dione ([…]) for 3 h. Subsequently, the reaction mixture was removed, and proteins were precipitated using 10% trichloroacetic acid at 42° C. for 20 min. After a brief centrifugation, the media was extracted three times with an equal amount of chloroform to extract unused substrate and further dextran-treated charcoal. After centrifugation, a 250-μL aliquot containing the product was counted in 5 mL of liquid scintillation mixture. Results were corrected for blanks and for the cell contents of culture flasks, and results were expressed as picomoles of 3H2O formed per hour incubation time per million live cells (pmol/h/10^6 cells). To determine the amount of cells in each flask, the cells were trypsinized and analyzed using the diphenylamine DNA assay adapted to a 96-well plate. (Natarajan N.; Shambaugh, G. E., 3rd; Elseth K. M.; Haines G. K.; Radosevich J. A. Adaptation of the diphenylamine (DPA) assay to a 96-well plate tissue culture format and comparison with the MTT assay. Biotechniques 1994, 17, 166-171; incorporated herein by reference). IC50 sigmoidal dose-response data were analyzed with Microsoft Excel and the Graphpad Prism (Version 3.0) program.

[2] = test system: PGE2 production in MDA-MB-231 cells; assay: Enzyme immunoassay of PGE2 in MDA-MB-231 cells (COX-2 inhibitory activity); format: cell-based, human; conditions: 25 μM, 24 h (FIG. 4)
Experimental: Enzyme Immunoassay of PGE2 in MDA-MB-231 Cells. MDA-MB-231 cells were obtained from ATCC (Rockville, Md.). Cell cultures were maintained in phenol red-free custom media (MEM, Earle's salts, 1.5× amino acids, 2× nonessential amino acids, L-glutamine, 1.5× vitamins, Gibco BRL) supplemented with 10% fetal bovine serum (FBS), 2 mM L-glutamine and 20 mg/L gentamycin. To study PGE2 synthesis in cell culture media, experiments were performed in […] Petri dishes. An aliquot of MDA-MB-231 cells (15×10^4 cells) were added to each dish and then incubated overnight to allow the cells to adhere to the dish. After that, cells were serum starved in defined media for 24 h. This step was followed by replacement of media with fresh media containing either vehicle (DMSO) or the indicated concentration of agents. After 24 h incubation at 37° C. the media were collected and the amount of PGE2 was determined by ELISA (Cayman Chemical) according to the protocol provided by the manufacturer. PGE2 concentration was normalized to total protein. Total proteins were extracted from adhered cells by 30 min treatment with 0.5 M NaOH at room temperature and shaking. Protein concentrations in these extracts were determined using a protein assay method (Bio-Rad Laboratories, Inc., Hercules, Calif.).

[3] = test system: CYP19 mRNA expression in SK-BR-3 cells; assay: CYP19 mRNA expression by real-time RT-PCR in SK-BR-3 cells; format: cell-based, human; conditions: 25 μM, 24 h (FIG. 5)
Experimental: (§1) RNA Extraction. Total RNA was isolated using the TRIzol reagent according to the manufacturer's protocol. Total RNA pellets were dissolved in DNase- and RNase-free water and quantitated using a spectrophotometer. The quality of RNA samples was determined by electrophoresis through agarose gels and staining with ethidium bromide; the 18S and 28S rRNA bands were visualized under ultraviolet light.
(§2) cDNA Synthesis. Isolated total RNA (2 μg) was treated with DNase I Amplification grade, according to the recommended protocol to eliminate any DNA before reverse transcription. Treated total RNA was denatured at 65° C. for 5 min in the presence of 2.5 ng/μL random hexamers and 0.5 mM dNTP mix. The samples were snap-cooled on ice and centrifuged briefly. Complementary DNA (cDNA) was synthesized using Superscript II reverse transcriptase according to the recommended protocol. Briefly, the reactions were conducted in the presence of 1× First-Strand Buffer and 20 mM DTT at 42° C. for 50 min and consequently inactivated at 70° C. for 15 min. The cDNA generated was used as a template in realtime PCR reactions.
Real-Time PCR. Real-time PCR was performed using the Opticon 2 system from MJ Research (Waltham, Mass.). For the CYP19 total gene the PCR reaction mixture consisted of Taqman Universal PCR Master Mix (Applied Biosystems), 600 nM of CYP19 primer (sense: 5′-TGTCTCTTTGTTCTTCATGCTATTTCTC-3′ (SEQ ID NO: 1); antisense: 5′-TCACCAATAACAGTCTGGATTTCC-3′) (SEQ ID NO: 2); 250 nM Taqman probe (6FAM 5′-TGCAAAGCACCCTAATGTTGAAGAGGCAAT-3′TAMRA) (SEQ ID NO: 3) (Invitrogen), 18S rRNA (Applied Biosystems, Foster City, Calif.), and 2.0 μL of each RT sample in a final volume of 20 μL. The Taqman probe was designed to anneal to a specific sequence of the aromatase gene between the forward and the reverse primers. Cycling conditions were 50° C. for 2 mm and 95° C. for 10 mm, followed by 50 cycles at 95° C. for 15 s and 60° C. for 1 mm.
as §1, with “extraction.” for “Extraction.”, “DNase,” for “DNase- and”
as §2, with “synthesis.” for “Synthesis.”, “real-time” for “realtime”
Real-time PCR. Real-time PCR was performed using the Opticon™ 2 system from MJ Research (Waltham, Mass.). For the CYP19 total gene the PCR reaction mixture consisted of Taqman® Universal PCR Master Mix (Applied Biosystems), 600 nM of CYP19 primer (sense: 5′-TGTCTCTTTGTTCTTCATGCTATTTCTC-3′ (SEQ ID NO: 1); antisense: 5′-TCACCAATAACAGTCTGGATTTCC-3′) (SEQ ID NO: 2); 250 nM Taqman probe (6FAM 5′-TGCAAAGCACCCTAATGTTGAAGAGGCAAT-3′TAMRA) (SEQ ID NO: 3) (Invitrogen), and 2.0 μL of each cDNA sample in a final volume of 20 μL. […]

[4] = test system: aromatase activity in SK-BR-3 breast cancer cells; assay: Aromatase tritiated water-release assay in SK-BR-3 cell lines (first compound set); format: cell-based, human; conditions: SK-BR-3 cells

melting point	SMILES	IC50 [1]	PGE2 production (COX-2 inhibitory activity) [2]	CYP19 gene expression relative to control [3]	time-course of suppression of aromatase activity ([4]; 2 μM)	time-course of suppression of aromatase activity ([4]; 10 μM)	increase of aromatase activity after removing the drug ([1]; letrozole 10 nM, after removal of drug)	time-course of suppression of aromatase activity ([4]; 10 nM)
–	CS(=O)(=O)Nc1ccc([N+](=O)[O-])cc1OC1CCCCC1 [NS-398, N-(2-Cyclohexyloxy-4-nitrophenyl)methanesulfonamide, reference compound]	0.68 µM	significantly decrease in PGE2 production	significantly decreased CYP19 gene expression	prolonged reversible suppression of aromatase	–	–	–
100 to 102 °C	CCC(CC)Oc1cc([N+](=O)[O-])ccc1NS(C)(=O)=O [Compound 13, N-(2-(1-Ethyl-propyloxy-4-nitrophenyl))methanesulfonamide]	0.3 µM	significantly decrease in PGE2 production	significantly decreased CYP19 gene expression	–	–	–	–
–	C[C@@H]1C[C@@H]([C@H](O)CC2CC(=O)NC(=O)C2)C(=O)[C@@H](C)C1 [Cycloheximide]	–	–	–	–	showed similar results	–	–
–	N#Cc1ccc(C(c2ccc(C#N)cc2)n2cncn2)cc1 [letrozole, reference compound]	–	–	–	–	–	150%	acute inhibition
89 to 90 °C	CCC(CC)Oc1cc([N+](=O)[O-])ccc1N(C)S(C)(=O)=O [Compound 22, N-Methyl-N-(2-(1-ethyl-propyloxy-4-nitrophenyl))methanesulfonamide]	0.23 µM	did not show any inhibitory activity	significantly decreased CYP19 gene expression	–	–	–	–

SMILES	melting point	IC50 [1]	PGE2 production (COX-2 inhibitory activity) [2]	CYP19 gene expression relative to control [3]	time-course of suppression of aromatase activity ([4]; 2 μM)	time-course of suppression of aromatase activity ([4]; 10 μM)	increase of aromatase activity after removing the drug ([1]; letrozole 10 nM, after removal of drug)	time-course of suppression of aromatase activity ([4]; 10 nM)
CN(c1ccc([N+](=O)[O-])cc1OC1CCCCC1)S(C)(=O)=O [Compound 17, N-Methyl-N-(2-cyclohexyloxy-4-nitrophenyl)methanesulfonamide]	129 to 132 °C	0.47 µM	did not show any inhibitory activity	significantly decreased CYP19 gene expression	prolonged reversible suppression of aromatase	–	–	–
